Among the data in patent EP0656355A1, “BIPHENYLMETHANE DERIVATIVE AND MEDICINE CONTAINING THE SAME” (WAKUNAGA SEIYAKU KABUSHIKI KAISHA, priority 1992, dated 1994) are IC50 values, retold here.

Assay [1] concerns the target T1, angiotensin II (AII) receptor (Rattus norvegicus, UniProt P25095).
T1 construct: Vascular smooth muscle cells, which had been separated from the aorta of a male Wistar rat and cultured on a 24-well multiplate; endogenous in cells; host or cells: primary cultured vascular smooth muscle cells from the aorta of a male Wistar rat
T1 sequence (P25095 1-359): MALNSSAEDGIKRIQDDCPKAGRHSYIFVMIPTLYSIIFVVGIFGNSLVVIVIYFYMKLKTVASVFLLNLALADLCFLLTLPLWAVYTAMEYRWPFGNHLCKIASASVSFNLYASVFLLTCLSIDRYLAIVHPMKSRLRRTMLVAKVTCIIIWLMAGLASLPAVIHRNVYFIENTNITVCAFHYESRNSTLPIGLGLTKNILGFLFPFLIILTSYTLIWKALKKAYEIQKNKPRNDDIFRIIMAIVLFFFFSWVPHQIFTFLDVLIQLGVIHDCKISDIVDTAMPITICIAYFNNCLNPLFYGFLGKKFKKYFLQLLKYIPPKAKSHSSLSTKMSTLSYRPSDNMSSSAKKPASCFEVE
The assay is described as follows: Inhibitory action against the binding with angiotensin II (AII) receptor, 125I-AII competition on cultured rat aortic smooth muscle cells. Also noted: species or system male Wistar rat. Particulars: 50% substitution of ¹²⁵I-AII specific binding; ¹²⁵I-AII 2 x 10⁻¹⁰M; one hour at room temperature; rat vascular smooth muscle cells; read-out: IC₅₀. Here is the method:
(1) Inhibitory action against the binding with angiotensin II (AII) receptor, using cultured rat aortic smooth muscle cells The present test was conducted in accordance with the method reported by Chiu et al. in European Journal of Pharmacology, 157, 13-21(1988), though after some modifications. […] To each well, ¹²⁵I-AII (final concentration: 2 x 10⁻¹⁰M) was added together with or without a test compound to give a total volume of 0.2 mℓ. Then the wells were incubated for one hour at room temperature to make the ¹²⁵I-AII and the test compound competitively bind to the vascular smooth muscle cells. Each well was thereafter washed with an ice-cold buffer three times to remove unbound ¹²⁵I-AII. To the cells, 0.2 mℓ of a 1 mol/ℓ solution of sodium hydroxide was added to solubilize the bound ¹²⁵I-AII. A bound amount of ¹²⁵I-AII contained in the resulting cell solution was measured by a gamma counter. The above test was conducted for each compound at different concentrations of 3 doses or more. The inhibition rate against the specific binding with ¹²⁵I-AII at each concentration was calculated in accordance with an equation to be set out subsequently herein.

Assay [2] has as its system angiotensin II contraction in longitudinal ileac muscles. The assay is described as follows: Inhibitory activity to angiotensin II contraction in longitudinal ileac muscles excised from a guinea pig. It is filed as cell-based, Hartley male guinea pig. Conditions: Cavia porcellus, 20 min; 50% contraction inhibition concentration; 10⁻⁸M angiotensin II; test compound reacted for 20 minutes; guinea pig ileum longitudinal muscle; read-out: IC₅₀. The method, then:
(2) Inhibitory activity to angiotensin II contraction in longitudinal ileac muscles excised from a guinea pig
A Hartley male guinea pig (350-450 g in weight) was sacrificed under exsanguination, followed by the excision of its ileum.
A longitudinal muscle tissue (2 cm long) was prepared from the ileum in a manner known per se in the art. The sample was suspended in a 20-mℓ Magnus cylinder filled with a Tylode solution [composition (mM): NaCℓ 137, KCℓ 2.7, CaCℓ₂ 1.88, MgCℓ₂ 1.1, NaH₂PO₄ 0.4, NaH₂CO₃ 11.8 and glucose 5.6). The Tylode solution was incubated at 37°C and saturated with a mixed gas consisting of 95% O₂ + 5% CO₂. Using an isometric transducer ("TB-611T", manufactured by Nihon Kohden Corporation), variations in contraction were measured. The measurement results were recorded on a computer ("PC-9801", manufactured by NEC Corporation).
Under a load of 0.5 g initial tension, the longitudinal muscle sample was equilibrated in a nutrient solution for about one hour while being washed therewith at intervals of 15 minutes. Then, contracture by the administration of 80 mM of KCℓ was repeated twice. After conforming that the contraction occurred stably, the following test was conducted.
First, 10^-8M angiotensin II was administered to the sample and its maximum contraction was recorded. The test compound was then administered to the sample and they were reacted for 20 minutes. Administered again was 10⁻⁸M angiotensin II and the maximum contraction was measured. […] This test was repeated at increased concentrations of the test compound. A 50% contraction inhibition concentration (IC₅₀) was determined in accordance with a linear regressive calculation of the contraction inhibition rates.

As for `CCCC(=O)N=c1sc(CC)nn1Cc1ccc(-c2ccccc2-c2nnn[nH]2)cc1` [Compound No.1, 2-Butyrylimino-5-ethyl-3-[2'-(1H-tetrazol-5-yl)biphenyl-4-yl]methyl-1,3,4-thiadiazoline], the IC50 in assay [1] is 8 nM; in assay [2] it was 23 nM. Turning to `CCCC(=O)N(Cc1ccc(-c2ccccc2-c2nn[nH]n2)cc1)c1nnc(CC)s1` [Compound No.2, 2-[N-Butyryl-N-(2'-(1H-tetrazol-5-yl)biphenyl-4-yl)methyl]amino-5-ethyl-1,3,4-thiadiazole], the IC50 in assay [1] is 13 nM; in assay [2], 11 nM. For `CCCCc1nn(Cc2ccc(-c3ccccc3-c3nnn[nH]3)cc2)c(=NC(=O)CC)s1` [Compound No.7, 2-Propionylimino-5-n-butyl-3-[2'-(1H-tetrazol-5-yl)biphenyl-4-yl]methyl-1,3,4-thiadiazoline], the values for the IC50 in assay [1] and in assay [2] were 6.8 nM and 21 nM, respectively. `CCCC(=O)N=c1sc(C2CC2)nn1Cc1ccc(-c2ccccc2-c2nnn[nH]2)cc1` [Compound No.11, 2-Butyrylimino-5-cyclopropyl-3-[2'-(1H-tetrazol-5-yl)biphenyl-4-yl]methyl-1,3,4-thiadiazoline]: the IC50 came out at 6.5 nM in assay [1] and 26 nM in assay [2]. In the same order, the values of `CCCC(=O)N(Cc1ccc(-c2ccccc2-c2nn[nH]n2)cc1)c1nnc(C2CC2)s1` [Compound No.12, 2-[N-Butyryl-N-(2'-(1H-tetrazol-5-yl)biphenyl-4-yl)methyl]amino-5-cyclopropyl-1,3,4-thiadiazole] are 32 nM and 28 nM. In the same order, the values of `CCCCc1nn(Cc2ccc(-c3ccccc3-c3nnn[nH]3)cc2)c(=NC(=O)CCC)s1` [Compound No.13, 2-Butyrylimino-5-n-butyl-3-[2'-(1H-tetrazol-5-yl)biphenyl-4-yl]methyl-1,3,4-thiadiazoline] are 14 nM and 24 nM. Turning to `CCCCc1nnc(N(Cc2ccc(-c3ccccc3-c3nn[nH]n3)cc2)C(=O)CCC)s1` [Compound No.14, 2-[N-Butyryl-N-(2'-(1H-tetrazol-5-yl)biphenyl-4-yl)methyl]amino-5-n-butyl-1,3,4-thiadiazole], the IC50 in assay [1] was found to be 9.8 nM; in assay [2] it was 36 nM. For `CCc1nn(Cc2ccc(-c3ccccc3-c3nnn[nH]3)cc2)c(=NC(=O)C2CC2)s1` [Compound No.19, 2-Cyclopropylcarbonylimino-5-ethyl-3-[2'-(1H-tetrazol-5-yl)biphenyl-4-yl]methyl-1,3,4-thiadiazoline], the IC50 in assay [1] was found to be 15 nM. Still for that read-out and setting: next, `O=C(N=c1sc(C2CC2)nn1Cc1ccc(-c2ccccc2-c2nn[nH]n2)cc1)C1CC1` [Compound No.23, 2-Cyclopropylcarbonylimino-5-cyclopropyl-3-[2'-(1H-tetrtazol-5-yl)biphenyl-4-yl]methyl-1,3,4-thiadiazoline]: 31 nM. Turning to `O=C(N=c1sc(-c2ccccc2)nn1Cc1ccc(-c2ccccc2-c2nnn[nH]2)cc1)C1CC1` [Compound No.27, 2-Cyclopropylcarbonylimino-5-phenyl-3-[2'-(1H-tetrazol-5-yl)biphenyl-4-yl]methyl-1,3,4-thiadiazoline], the IC50 in assay [2] came out at 10 nM. In the case of `CCCCC(=O)N(Cc1ccc(-c2ccccc2-c2nn[nH]n2)cc1)c1nnc(C)s1` [Compound No.30, 2-[N-Valeryl-N-(2'-(1H-tetrazol-5-yl)biphenyl-4-yl)methyl]amino-5-methyl-1,3,4-thiadiazole], the IC50 in assay [2] came out at 29 nM.

With `CCCCC(=O)N=c1sc(CC)nn1Cc1ccc(-c2ccccc2-c2nnn[nH]2)cc1` [Compound No.31, 2-Valerylimino-5-ethyl-3-[2'-(1H-tetrazol-5-yl)biphenyl-4-yl]methyl-1,3,4-thiadiazoline], the IC50 in assay [1] is 17 nM.

Consider `CCCCC(=O)N(Cc1ccc(-c2ccccc2-c2nn[nH]n2)cc1)c1nnc(C2CC2)s1` [Compound No.34, 2-[N-Valeryl-N-(2'-(1H-tetrazol-5-yl)biphenyl-4-yl)methyl]amino-5-cyclopropyl-1,3,4-thiadiazole], for which the IC50 in assay [1] was determined as 10 nM. Turning to `CCc1nn(Cc2ccc(-c3ccccc3-c3nnn[nH]3)cc2)c(=NC(=O)C(F)(F)F)s1` [Compound No.50, 2-Trifluoroacetylimino-5-ethyl-3-[2'-(1H-tetrazol-5-yl)biphenyl-4-yl]methyl-1,3,4-thiadiazoline], the IC50 in assay [2] worked out at 4.9 nM. Turning to `CCc1nn(Cc2ccc(-c3ccccc3-c3nnn[nH]3)cc2)c(=NC(=O)c2ccccc2Cl)s1` [Compound No.68, 2-(2-Chlorobenzoyl)imino-5-ethyl-3-[2'-(1H-tetrazol-5-yl)biphenyl-4-yl]methyl-1,3,4-thiadiazoline], in assay [1], the IC50 is 5.7 nM. As to `CCCc1nn(Cc2ccc(-c3ccccc3-c3nnn[nH]3)cc2)c(=NC(=O)C2=C(C(=O)O)CCC2)s1` [Compound No.131, 2-[[5-n-Propyl-3-[2'-(1H-tetrazol-5-yl)biphenyl-4-yl]methyl-1,3,4-thiadiazoline-2-yliden]aminocarbonyl]-1-cyclopenten carboxylic acid], the IC50 in assay [2] is 0.84 nM.

Regarding `O=C(O)C1=C(C(=O)N=c2sc(C3CC3)nn2Cc2ccc(-c3ccccc3-c3nn[nH]n3)cc2)CCC1` [Compound No.132, 2-[[5-Cyclopropyl-3-[2'-(1H-tetrazol-5-yl)biphenyl-4-yl]methyl-1,3,4-thiadiazoline-2-yliden]aminocarbonyl]-1-cyclopetenecarboxylic acid], the IC50 in assay [2] came out at 0.4 nM.

On to `O=C(O)c1ccccc1C(=O)N=c1sc(C2CC2)nn1Cc1ccc(-c2ccccc2-c2nnn[nH]2)cc1` [Compound No.137, N-[5-Cyclopropyl-3-[2'-(1H-tetrazol-5-yl)biphenyl-4-yl]methyl-1,3,4-thiadiazoline-2-yliden]phthalamic acid], for which the IC50 in assay [2] was 0.9 nM. With `CCc1nn(Cc2ccc(-c3ccccc3-c3nnn[nH]3)cc2)c(=NC(=O)c2c(F)ccc(F)c2C(=O)O)s1` [Compound No.139, 3,6-Difluoro-N-[5-Ethyl-3-[2'-(1H-tetrazol-5-yl)biphenyl-4-yl]methyl-1,3,4-thiadiazoline-2-yliden] phthalamic acid], in assay [2], the IC50 is 7.4 nM.

Regarding `CCc1nn(Cc2ccc(-c3ccccc3-c3nnn[nH]3)cc2)c(=NC(=O)c2cscc2C(=O)O)s1` [Compound No.143, 4-[[5-Ethyl-3-[2'-(1H-tetrazol-5-yl)biphenyl-4-yl]methyl-1,3,4-thiadiazoline-2-yliden]aminocarbonyl] thiophene-3-carboxylic acid], the IC50 in assay [2] came to 0.64 nM. The same measure, in the same setting: next, `CCc1nn(Cc2ccc(-c3ccccc3-c3nnn[nH]3)cc2)c(=NS(=O)(=O)c2ccccc2C(=O)OC)s1` [Compound No.151, 2-[[5-Ethyl-3-[2'-(1H-tetrazol-5-yl)biphenyl-4-yl]methyl-1,3,4-thiadiazoline-2-yliden]aminosulfonyl]benzoic acid methyl ester]: 0.8 nM; `CCCc1sc(=NC(=O)C2CC2)n(Cc2ccc(-c3ccccc3-c3nnn[nH]3)cc2)c1C(=O)O` [Compound No.244, 2-Cyclopropylcarbonylimino-3-[2'-(1H-tetrazol-5-yl)biphenyl-4-yl]methyl-5-n-propylthiazoline-4-carboxylic acid]: 0.76 nM; `CCCCc1sc(=NC(=O)C2CC2)n(Cc2ccc(-c3ccccc3-c3nnn[nH]3)cc2)c1C(=O)O` [Compound No.245, 2-Cyclopropylcarbonylimino-3-[2'-(1H-tetrazol-5-yl)biphenyl-4-yl]methyl-5-n-butylthiazoline-4-carboxylic acid]: 0.35 nM.
